# Results published in paper PMC12527922, “Cocaine chemogenetics blunts drug-seeking by synthetic physiology” (Nature, 2025).
# Where “and” joins values, the source holds several entries; their conditions need not be identical. Identical values can stand only once.
# System: GRABDA dopamine sensor, nucleus accumbens shell
# Assay: Fibre photometry of dopamine (GRABDA) after cocaine administration
# Type: in vivo, rat
# Settings: for GRABDA dopamine signal, Mean: ED Fig. 9d; for GRABDA response versus saline: cocaine 5, 10, 20 mg per kg i.p.
# Procedure: Male Sprague–Dawley rats were anaesthetized with isoflurane (1.5–2%) and then placed onto a stereotaxic frame (Kopf) and injected with AAV5-Syn::coca-5HT3-IRES-mCherry (0.5 µl, 4.95 × 10^12 vg per ml) into the LHb (AP, −3.8 mm relative to bregma; ML, ±0.7 mm; DV, −5.25 mm, at a 10° angle) (n = 5) or underwent sham surgery (n = 6). Rats were also implanted with an optic fibre (400 µm core, 0.50 NA) attached to a 2.5 mm diameter ferrule (Thorlabs) directed to the medial shell of the nucleus accumbens (AP, +1.7 mm relative to bregma; ML, ±0.9 mm; DV, −7.0 mm). To ensure that AAV9-Syn::GRABDA1m was transduced at the direct vicinity of the fibre tip, we coated the fibre with the AAV (0.4 µl, 5 × 10^12 vg per ml) using a silk fibroin film before its implantation as previously described.
# For fibre photometry, dopamine (GRABDA) dynamics were measured using a Tucker-Davis Technologies (TDT) system in anaesthetized rats. […] Data were acquired at 1 kHz. On the testing day, rats were anaesthetized (isoflurane: induction, 5%; maintenance, 3%) and attached to a photometry patch cord (400 μm core, 0.50 NA). GRABDA signals were then collected for 5 min, followed by a saline i.p. injection, and additional GRABDA signal measurement for 20 min. Cocaine was then injected i.p. at 20, 10 or 5 mg per kg, and the GRABDA signal was measured for an additional 20 min. Each rat was tested three times with cocaine doses administered in randomized order. Fibre photometry analyses were performed using scripts in MATLAB R2023b (MathWorks) based on codes from the Barker (https://github.com/djamesbarker)[64] and Lerner (https://github.com/talialerner/)[65] laboratories. […] The GRABDA signal was normalized to values at 1 min before saline or cocaine injection and shown as the average z-scored activity per min. […] Fibre photometry data are represented as mean ± s.e.m. Statistical analyses were performed using Prism 10 (GraphPad).
# [1] = ED Fig. 9a, Cocaine 10 mg/kg, Time 5
# [2] = ED Fig. 9a, Cocaine 10 mg/kg, Time 6
# [3] = ED Fig. 9a, Cocaine 10 mg/kg, Time 7
# [4] = ED Fig. 9a, Cocaine 10 mg/kg, Time 8
# [5] = ED Fig. 9a, Cocaine 10 mg/kg, Time 9
# [6] = ED Fig. 9a, Cocaine 10 mg/kg, Time 10
# [7] = ED Fig. 9a, Cocaine 10 mg/kg, Time 11
# [8] = ED Fig. 9a, Cocaine 10 mg/kg, Time 12
# [9] = ED Fig. 9a, Cocaine 10 mg/kg, Time 13
# [10] = ED Fig. 9a, Cocaine 10 mg/kg, Time 14
# [11] = ED Fig. 9a, Cocaine 10 mg/kg, Time 15
# [12] = ED Fig. 9a, Cocaine 10 mg/kg, Time 16
# [13] = ED Fig. 9a, Cocaine 10 mg/kg, Time 17
# [14] = ED Fig. 9a, Cocaine 10 mg/kg, Time 18
# [15] = ED Fig. 9a, Cocaine 10 mg/kg, Time 19
# [16] = ED Fig. 9a, Cocaine 10 mg/kg, Time -1
smiles,measurement,setting,value
COC(=O)[C@H]1[C@@H](OC(=O)c2ccccc2)C[C@@H]2CC[C@H]1N2C [cocaine],"GRABDA dopamine signal, single rats","ED Fig. 9a, Cocaine 10 mg/kg, Time 4",1.256 and 1.397 and 0.09982 and 0.6394 and 1.0999 and 0.05112
same,"GRABDA dopamine signal, AVG",[1],1.193
same,"GRABDA dopamine signal, single rats",[1],1.343 and 2.078 and 0.3984 and 0.8156 and 2.4787 and 0.0445
same,"GRABDA dopamine signal, AVG",[2],1.422
same,"GRABDA dopamine signal, single rats",[2],1.711 and 2.382 and 0.7218 and 1.242 and 2.331 and 0.1429
same,"GRABDA dopamine signal, AVG",[3],1.596
same,"GRABDA dopamine signal, single rats",[3],1.781 and 2.522 and 1.248 and 1.497 and 2.407 and 0.1218
same,"GRABDA dopamine signal, AVG",[4],1.699
same,"GRABDA dopamine signal, single rats",[4],2.125 and 2.686 and 1.2639 and 1.736 and 2.313 and 0.06957
same,"GRABDA dopamine signal, AVG",[5],1.935
same,"GRABDA dopamine signal, single rats",[5],2.098 and 2.8744 and 1.781 and 1.888 and 2.927 and 0.03932
same,"GRABDA dopamine signal, AVG",[6],2.176
same,"GRABDA dopamine signal, single rats",[6],2.19 and 2.83 and 2.002 and 2.24 and 3.737 and 0.0549
same,"GRABDA dopamine signal, AVG",[7],2.088
same,"GRABDA dopamine signal, single rats",[7],2.259 and 2.779 and 2.031 and 2.445 and 2.889 and 0.1232
same,"GRABDA dopamine signal, AVG",[8],1.996
same,"GRABDA dopamine signal, single rats",[8],2.418 and 2.64 and 2.12 and 2.366 and 2.425 and 0.00481
same,"GRABDA dopamine signal, AVG",[9],2.15
same,"GRABDA dopamine signal, single rats",[9],2.55 and 2.491 and 2.555 and 2.51 and 2.634 and 0.161
same,"GRABDA dopamine signal, AVG",[10],2.1808
same,"GRABDA dopamine signal, single rats",[10],2.759 and 2.573 and 2.372 and 2.6549 and 2.629 and 0.09693
same,"GRABDA dopamine signal, AVG",[11],2.145
same,"GRABDA dopamine signal, single rats",[11],2.608 and 2.303 and 2.535 and 2.6631 and 2.692 and 0.06715
same,"GRABDA dopamine signal, AVG",[12],2.005
same,"GRABDA dopamine signal, single rats",[12],2.483 and 2.2 and 2.525 and 2.513 and 2.213 and 0.09632
same,"GRABDA dopamine signal, AVG",[13],2.106
same,"GRABDA dopamine signal, single rats",[13],2.751 and 1.972 and 2.4136 and 2.994 and 2.448 and 0.05475
same,"GRABDA dopamine signal, AVG",[14],1.975
same,"GRABDA dopamine signal, single rats",[14],2.385 and 1.7832 and 2.833 and 2.375 and 2.433 and 0.03971
same,"GRABDA dopamine signal, AVG",[15],1.865
same,"GRABDA dopamine signal, single rats",[15],2.396 and 1.613 and 2.323 and 2.558 and 2.225 and 0.07693
same,"GRABDA dopamine signal, AVG",[16],0.04715
same,"GRABDA dopamine signal, single rats",[16],0.0433 and 0.0669 and 0.08953 and 0.0687
same,"GRABDA dopamine signal, AVG","ED Fig. 9c, Cocaine 20 mg/kg, Time 0",0.0619
same,"GRABDA dopamine signal, AVG","ED Fig. 9c, Cocaine 20 mg/kg, Time 1",0.07229
same,"GRABDA dopamine signal, AVG","ED Fig. 9c, Cocaine 20 mg/kg, Time 2",0.3247
same,"GRABDA dopamine signal, AVG","ED Fig. 9c, Cocaine 20 mg/kg, Time 3",0.7746
same,"GRABDA dopamine signal, AVG","ED Fig. 9c, Cocaine 20 mg/kg, Time 4",1.201
same,"GRABDA dopamine signal, AVG","ED Fig. 9c, Cocaine 20 mg/kg, Time 5",1.589
same,"GRABDA dopamine signal, AVG","ED Fig. 9c, Cocaine 20 mg/kg, Time 6",1.681
same,"GRABDA dopamine signal, AVG","ED Fig. 9c, Cocaine 20 mg/kg, Time 7",1.863
same,"GRABDA dopamine signal, AVG","ED Fig. 9c, Cocaine 20 mg/kg, Time 8",1.725
same,"GRABDA dopamine signal, AVG","ED Fig. 9c, Cocaine 20 mg/kg, Time 9",1.85
same,"GRABDA dopamine signal, AVG","ED Fig. 9c, Cocaine 20 mg/kg, Time 10",1.747
same,"GRABDA dopamine signal, AVG","ED Fig. 9c, Cocaine 20 mg/kg, Time 11",1.666
same,"GRABDA dopamine signal, AVG","ED Fig. 9c, Cocaine 20 mg/kg, Time 12",1.553
same,"GRABDA dopamine signal, AVG","ED Fig. 9c, Cocaine 20 mg/kg, Time 13",1.4
same,"GRABDA dopamine signal, AVG","ED Fig. 9c, Cocaine 20 mg/kg, Time 14",1.393
same,"GRABDA dopamine signal, AVG","ED Fig. 9c, Cocaine 20 mg/kg, Time 15",1.467
same,"GRABDA dopamine signal, AVG","ED Fig. 9c, Cocaine 20 mg/kg, Time 16",1.282
same,"GRABDA dopamine signal, AVG","ED Fig. 9c, Cocaine 20 mg/kg, Time 17",1.1
same,"GRABDA dopamine signal, AVG","ED Fig. 9c, Cocaine 20 mg/kg, Time 18",1.175
same,"GRABDA dopamine signal, AVG","ED Fig. 9c, Cocaine 20 mg/kg, Time 19",1.238
same,"GRABDA dopamine signal, AVG","ED Fig. 9c, Cocaine 20 mg/kg, Time -1",-0.01168
same,"GRABDA dopamine signal, Mean","Cocaine 20 mg/kg, Time 0",-0.2698
same,"GRABDA dopamine signal, Mean","Cocaine 20 mg/kg, Time 1",-0.1247
same,"GRABDA dopamine signal, Mean","Cocaine 20 mg/kg, Time 2",0.09345
same,"GRABDA dopamine signal, Mean","Cocaine 20 mg/kg, Time 3",0.3137
same,"GRABDA dopamine signal, Mean","Cocaine 20 mg/kg, Time 4",0.5516
same,"GRABDA dopamine signal, Mean","Cocaine 20 mg/kg, Time 5",0.5577
same,"GRABDA dopamine signal, Mean","Cocaine 20 mg/kg, Time 6",0.3392
same,"GRABDA dopamine signal, Mean","Cocaine 20 mg/kg, Time 7",0.3431
same,"GRABDA dopamine signal, Mean","Cocaine 20 mg/kg, Time 8",0.2873
same,"GRABDA dopamine signal, Mean","Cocaine 20 mg/kg, Time 9",0.5323
same,"GRABDA dopamine signal, Mean","Cocaine 20 mg/kg, Time 10",0.4252
same,"GRABDA dopamine signal, Mean","Cocaine 20 mg/kg, Time 11",0.3604
same,"GRABDA dopamine signal, Mean","Cocaine 20 mg/kg, Time 12",0.1832
same,"GRABDA dopamine signal, Mean","Cocaine 20 mg/kg, Time 13",0.2813
same,"GRABDA dopamine signal, Mean","Cocaine 20 mg/kg, Time 14",0.2778
same,"GRABDA dopamine signal, Mean","Cocaine 20 mg/kg, Time 15",0.4094
same,"GRABDA dopamine signal, Mean","Cocaine 20 mg/kg, Time 16",0.4918
same,"GRABDA dopamine signal, Mean","Cocaine 20 mg/kg, Time 17",0.3214
same,"GRABDA dopamine signal, Mean","Cocaine 20 mg/kg, Time 18",0.2818
same,"GRABDA dopamine signal, Mean","Cocaine 20 mg/kg, Time 19",0.2119
same,"GRABDA dopamine signal, Mean","Cocaine 20 mg/kg, Time -1",0.05504
same,GRABDA response versus saline,coca-5HT3 rats,did not produce statistically significant increases
same,GRABDA response versus saline,control rats,significantly increased
